Reference: US11180484B2, “Pyrazole derivatives as plasma kallikrein inhibitors” (KALVISTA PHARMACEUTICALS LIMITED, priority 2016, dated 2021)
In brackets after ≈: the same amount, converted by molar mass. Read-outs that look alike come from different tables or passages of the source.

Key:
Human plasma kallikrein [1] = molecular target: T1, Human plasma kallikrein (Homo sapiens (Human), UniProt P03952); test: Determination of the IC50 for plasma kallikrein; assay type: biochemical; conditions: 25° C., substrate H-DPro-Phe-Arg-AFC; read-out: IC50 (human PKal)
T1 sequence (P03952 391-638): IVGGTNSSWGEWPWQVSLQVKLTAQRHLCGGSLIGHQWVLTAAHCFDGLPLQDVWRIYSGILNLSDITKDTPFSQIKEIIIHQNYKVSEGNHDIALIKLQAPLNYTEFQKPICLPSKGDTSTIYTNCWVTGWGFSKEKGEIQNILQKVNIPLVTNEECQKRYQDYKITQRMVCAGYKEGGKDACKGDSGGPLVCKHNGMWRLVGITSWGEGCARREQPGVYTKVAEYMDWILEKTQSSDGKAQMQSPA
T1 sequence (P03952 20-390): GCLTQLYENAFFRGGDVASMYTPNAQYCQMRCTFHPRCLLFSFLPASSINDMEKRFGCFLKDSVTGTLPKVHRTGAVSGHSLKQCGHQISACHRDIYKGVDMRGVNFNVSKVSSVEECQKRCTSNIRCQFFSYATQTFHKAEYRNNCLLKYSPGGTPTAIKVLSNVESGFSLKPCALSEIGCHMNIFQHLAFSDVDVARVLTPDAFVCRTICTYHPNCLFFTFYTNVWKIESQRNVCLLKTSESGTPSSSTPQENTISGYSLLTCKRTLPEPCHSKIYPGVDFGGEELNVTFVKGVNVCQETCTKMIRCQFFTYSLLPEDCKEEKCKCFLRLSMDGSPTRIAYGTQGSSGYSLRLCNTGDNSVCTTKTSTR
Method: Human plasma kallikrein (Protogen) was incubated at 25° C. with the fluorogenic substrate H-DPro-Phe-Arg-AFC and various concentrations of the test compound. Residual enzyme activity (initial rate of reaction) was determined by measuring the change in […] at 410 nm and the IC50 value for the test compound was determined.

Human KLK1 = Human KLK1 (Homo sapiens (Human), UniProt P06870); test: Determination of the IC50 for KLK1; assay type: biochemical; conditions: 25° C., substrate H-DVal-Leu-Arg-AFC
Sequence of Human KLK1 (P06870 25-262): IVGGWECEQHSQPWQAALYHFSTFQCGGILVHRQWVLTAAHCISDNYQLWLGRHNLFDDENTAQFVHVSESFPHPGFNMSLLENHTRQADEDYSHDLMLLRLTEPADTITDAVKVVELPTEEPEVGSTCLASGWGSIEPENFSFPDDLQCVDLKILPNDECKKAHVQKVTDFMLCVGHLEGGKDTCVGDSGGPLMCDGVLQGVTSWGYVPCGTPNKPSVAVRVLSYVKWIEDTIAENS
Method: Human KLK1 (Callbiochem) was incubated at 25° C. with the fluorogenic substrate H-DVal-Leu-Arg-AFC and various concentrations of the test compound. Residual enzyme activity (initial rate of reaction) was determined by measuring the change in […] at 410 nm and the IC50 value for the test compound was determined.

Human FXIa = Human FXIa (Homo sapiens (Human), UniProt P03951); test: Determination of the % inhibition / IC50 for FXIa; assay type: biochemical; conditions: for inhibition at 40 µM: 40 μM test compound, read-out: % Inhibition @ 40 μM (human FXIa); for IC50: 25° C., substrate Z-Gly-Pro-Arg-AFC
Sequence of Human FXIa (P03951 388-625): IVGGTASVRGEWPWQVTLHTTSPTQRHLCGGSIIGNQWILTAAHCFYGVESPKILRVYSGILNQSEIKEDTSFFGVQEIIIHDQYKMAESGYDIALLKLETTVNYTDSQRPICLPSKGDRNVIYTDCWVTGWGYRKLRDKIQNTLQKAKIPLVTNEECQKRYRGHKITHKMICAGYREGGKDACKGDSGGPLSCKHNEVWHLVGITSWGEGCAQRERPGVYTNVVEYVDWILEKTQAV
Sequence of Human FXIa (P03951 19-387): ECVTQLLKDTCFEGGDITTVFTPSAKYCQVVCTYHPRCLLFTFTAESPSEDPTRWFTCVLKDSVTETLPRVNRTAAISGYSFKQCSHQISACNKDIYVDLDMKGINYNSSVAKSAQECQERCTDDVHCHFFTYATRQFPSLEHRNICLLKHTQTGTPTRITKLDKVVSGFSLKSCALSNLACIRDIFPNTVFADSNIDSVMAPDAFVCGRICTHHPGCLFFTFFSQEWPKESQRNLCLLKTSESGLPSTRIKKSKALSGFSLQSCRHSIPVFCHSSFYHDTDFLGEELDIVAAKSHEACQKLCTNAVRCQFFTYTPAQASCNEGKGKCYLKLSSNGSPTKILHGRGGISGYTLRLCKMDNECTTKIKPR
Method: FXIa inhibitory activity in vitro was determined using standard published methods (see e.g. Johansen et al., Int. J. Tiss. Reac. 1986, 8, 185; Shori et al., Biochem. Pharmacol., 1992, 43, 1209; Sturzebecher et al., Biol. Chem. Hoppe-Seyler, 1992, 373, 1025). […]

Human Factor XIIa = Human Factor XIIa (Homo sapiens (Human), UniProt P00748); test: Factor XIIa inhibitory activity in vitro; assay type: biochemical; conditions: 25° C., substrate H-DPro-Phe-Arg-AFC; read-out: IC50 (human FXIIa)
Sequence of Human Factor XIIa (P00748 373-615): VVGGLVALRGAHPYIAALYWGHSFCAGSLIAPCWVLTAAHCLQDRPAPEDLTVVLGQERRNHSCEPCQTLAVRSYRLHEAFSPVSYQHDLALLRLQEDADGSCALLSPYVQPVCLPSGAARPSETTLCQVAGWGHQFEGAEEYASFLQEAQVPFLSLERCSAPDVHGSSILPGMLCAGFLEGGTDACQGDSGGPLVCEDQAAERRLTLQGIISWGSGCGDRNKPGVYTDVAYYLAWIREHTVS
Method: Human Factor XIIa (Enzyme Research Laboratories) was incubated at 25° C. with the fluorogenic substrate H-DPro-Phe-Arg-AFC and various concentrations of the test compound. Residual enzyme activity (initial rate of reaction) was determined by measuring the change in […] at 410 nm and the IC50 value for the test compound was determined.

plasmin = plasmin (Homo sapiens (Human), UniProt P00747); test: Determination of enzyme selectivity: plasmin; assay type: biochemical; conditions: substrate at Km concentration
Sequence of plasmin (P00747 581-810): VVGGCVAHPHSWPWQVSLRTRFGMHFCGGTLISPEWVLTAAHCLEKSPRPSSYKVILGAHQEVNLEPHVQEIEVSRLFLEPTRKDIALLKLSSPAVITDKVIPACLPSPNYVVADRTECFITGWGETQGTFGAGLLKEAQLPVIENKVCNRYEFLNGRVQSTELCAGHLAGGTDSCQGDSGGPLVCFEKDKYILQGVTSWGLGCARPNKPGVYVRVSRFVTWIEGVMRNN
Sequence of plasmin (P00747 97-580): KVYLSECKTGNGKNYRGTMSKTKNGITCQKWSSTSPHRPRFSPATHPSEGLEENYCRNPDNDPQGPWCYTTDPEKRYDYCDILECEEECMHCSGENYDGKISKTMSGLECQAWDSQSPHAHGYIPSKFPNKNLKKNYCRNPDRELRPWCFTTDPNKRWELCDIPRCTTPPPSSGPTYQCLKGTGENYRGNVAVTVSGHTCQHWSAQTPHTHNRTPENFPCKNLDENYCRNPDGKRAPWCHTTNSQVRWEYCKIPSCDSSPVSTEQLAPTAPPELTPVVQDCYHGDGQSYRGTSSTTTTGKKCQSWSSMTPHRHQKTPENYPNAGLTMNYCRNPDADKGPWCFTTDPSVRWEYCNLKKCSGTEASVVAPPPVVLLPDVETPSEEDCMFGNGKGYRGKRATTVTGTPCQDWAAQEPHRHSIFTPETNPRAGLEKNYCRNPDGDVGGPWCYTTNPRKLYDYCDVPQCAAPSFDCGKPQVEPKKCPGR
Method: (§2) Human serine protease enzymes plasmin, thrombin and trypsin were assayed for enzymatic activity using an appropriate fluorogenic substrate. Protease activity was measured by monitoring the accumulation of liberated fluorescence from the substrate over 5 minutes. The linear rate of fluorescence increase per minute was expressed as percentage (%) activity. The Km for the cleavage of each substrate was determined by standard transformation of the Michaelis-Menten equation.

thrombin = thrombin (Homo sapiens (Human), UniProt P00734); test: Determination of enzyme selectivity: thrombin; assay type: biochemical; conditions: substrate at Km concentration
Method: as §2

trypsin = test: Determination of enzyme selectivity: trypsin; assay type: biochemical, human; conditions: substrate at Km concentration
Method: as §2

[2] = Solubility in water and 0.1N HCl (aq); assay type: physicochemical; conditions: thermodynamic from solid, incubated at 1 mg/mL, 37° C.
Method: Solubility was determined in water and 0.1N HCl (aq). Test compounds were incubated at 1 mg/mL for 24 hrs at 37° C. on a shaking platform (500 rpm). Samples were taken at 1, 4 and 24 hrs and centrifuged at 15,000 g for 10 min. Test compound concentration in the supernatant was determined by LCMS against a standard curve.

[3] = In vitro permeability, Caco-2 model for oral absorption; assay type: in vitro ADME; conditions: human, apical to basolateral, 50 μM test compound, 37° C.
In short: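 Caco-2 monolayers grown on collagen inserts for 3 days, with 50 μM compound added apically and incubated 1 hour at 37° C with shaking. Apical-to-basolateral transport measured by LCMS in both compartments. Monolayer integrity checked by TEER before and after, and by Lucifer Yellow flux.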

[4] = Intrinsic clearance in human liver microsomes; assay type: in vitro ADME; conditions: human liver microsomes 0.5 mg/mL, 5 μM test compound, 37° C.; read-out: Human liver microsome (Clint μL/min/mg protein)
Method: (§1) Rat or human liver microsomes (0.5 mg/mL; Corning) were incubated with 5 μM test compound at 37° C. on a shaking platform (150 rpm). Samples were taken at 0, 6, 12, 18, 24 and 60 min and test compound concentrations were determined by LCMS against a calibration curve.

[5] = Intrinsic clearance in rat liver microsomes; assay type: in vitro ADME; conditions: rat liver microsomes 0.5 mg/mL, 5 μM test compound, 37° C.; read-out: rat liver microsome (Clint μL/min/mg protein)
Method: as §1

[6] = Plasma protein binding (PPB), rapid equilibrium dialysis, human plasma; assay type: in vitro ADME; conditions: 5 μM test compound, dialysis 5 hrs at 37° C.
[7] = Plasma protein binding (PPB), rapid equilibrium dialysis, rat plasma; assay type: in vitro ADME; conditions: 5 μM test compound, dialysis 5 hrs at 37° C.
[8] = Predicted plasma clearance (Clp), well-stirred model, human; assay type: in vitro ADME; conditions: percentage of hepatic blood flow
[9] = Predicted plasma clearance (Clp), well-stirred model, rat; assay type: in vitro ADME; conditions: percentage of hepatic blood flow
[10] = Pharmacokinetics following a single oral dose in male Sprague-Dawley rats; assay type: in vivo; conditions: rat, single po dose (nominal 10 mg/kg; actual dose per row in column Dose po), 10% DMSO/10% cremophor/80% SWFI, plasma
Method: Pharmacokinetic studies of the compounds in Table 13 were performed to assess the pharmacokinetics following a single oral dose in male Sprague-Dawley rats. Two rats were given a single po dose of 5 mL/kg of a nominal 2 mg/mL (10 mg/kg) composition of test compound in vehicle. Following dosing, blood samples were collected over a period of 24 hours. Sample times were 5, 15 and 30 minutes then 1, 2, 4, 6, 8 and 12 hours. Following collection, blood samples were centrifuged and the plasma fraction analysed for concentration of test compound by LCMS.

Human plasma kallikrein [11] = molecular target: T1, Human plasma kallikrein; test: Determination of the Ki for plasma kallikrein (mixed-model inhibition); assay type: biochemical; conditions: for Ki: human plasma kallikrein, mixed-model inhibition equation; for Alpha: parameter of the mixed-model equation indicating mechanism of inhibition
[12] = simulated gastric fluid, 0.1N HCl (aq), read-out: Solubility 0.1N HCl (aq)
[13] = water, read-out: Solubility Water

Structure (SMILES): COCc1nn(Cc2ccc(Cn3cc(F)ccc3=O)cc2)cc1C(=O)NCc1nccc(OC)c1F [Example 30, 1-({4-[(5-fluoro-2-oxopyridin-1-yl)methyl]phenyl}methyl)-N-[(3-fluoro-4-methoxypyridin-2-yl)methyl]-3-(methoxymethyl)pyrazole-4-carboxamide]
- IC50 (Human plasma kallikrein [1]): 0.0067 µM
- IC50 (Human KLK1): > 40 µM
- inhibition at 40 µM (Human FXIa): 7%
- IC50 (Human FXIa): > 40 µM
- IC50 (Human Factor XIIa): > 40 µM
- IC50 (plasmin): > 40 µM
- IC50 (thrombin): > 40 µM
- IC50 (trypsin): > 40 µM
- solubility [2, 12]: 940 µg/mL (≈ 1840 µM)
- solubility [2, 13]: 290 µg/mL (≈ 569 µM)
- Papp at 1 h, 50 μM [3]: 24 ×10⁻⁶ cm/s
- microsomal CLint at 5 μM [4]: 20 µL/min/mg
- microsomal CLint at 5 μM [5]: 22 µL/min/mg
- fraction unbound at 5 h, 5 μM [6]: 0.18
- fraction unbound at 5 h, 5 μM [7]: 0.03
- Predicted in vivo human Clp (% LBF) [8]: 12 % LBF
- Predicted in vivo rat Clp (% LBF) [9]: 1 % LBF
- Cmax [10]: 756 ng/mL
- Tmax [10]: 38 min

Structure (SMILES): COc1ccc(F)c(CNC(=O)c2cn(Cc3ccc(Cn4ccccc4=O)cc3)nc2N)c1F [Example 35, 3-amino-N-[(2,6-difluoro-3-methoxyphenyl)methyl]-1-({4-[(2-oxopyridin-1-yl)methyl]phenyl}methyl)pyrazole-4-carboxamide]
- IC50 (Human plasma kallikrein [1]): 0.0017 µM
- IC50 (Human KLK1): > 40 µM
- inhibition at 40 µM (Human FXIa): 5%
- IC50 (Human FXIa): > 40 µM
- IC50 (Human Factor XIIa): > 40 µM
- IC50 (plasmin): > 40 µM
- IC50 (thrombin): > 40 µM
- IC50 (trypsin): > 40 µM
- solubility [2, 12]: 40 µg/mL (≈ 83.4 µM)
- solubility [2, 13]: 20 µg/mL (≈ 41.7 µM)
- Papp at 1 h, 50 μM [3]: 7 ×10⁻⁶ cm/s
- microsomal CLint at 5 μM [4]: 24 µL/min/mg
- microsomal CLint at 5 μM [5]: 15 µL/min/mg
- fraction unbound at 5 h, 5 μM [6]: 0.04
- fraction unbound at 5 h, 5 μM [7]: 0.01
- Predicted in vivo human Clp (% LBF) [8]: 7 % LBF
- Predicted in vivo rat Clp (% LBF) [9]: 1 % LBF

Structure (SMILES): COCc1nn(Cc2ccc(Cn3ccccc3=O)cc2)cc1C(=O)NCc1cc(Cl)ccc1-n1cnnn1 [Example 72, N-{[5-chloro-2-(1,2,3,4-tetrazol-1-yl)phenyl]methyl}-3-(methoxymethyl)-1-({4-[(2-oxopyridin-1-yl)methyl]phenyl}methyl)pyrazole-4-carboxamide]
- IC50 (Human plasma kallikrein [1]): 0.0007 µM
- Ki (Human plasma kallikrein [11]): 0.00016 µM
- Alpha (Human plasma kallikrein [11]): 6.0
- IC50 (Human KLK1): > 4 µM
- inhibition at 12.7 µM (Human FXIa; 12.7 μM test compound): 53%
- IC50 (Human FXIa): 10.6 µM
- IC50 (Human Factor XIIa): > 4 µM
- IC50 (plasmin): > 40 µM
- IC50 (thrombin): 39.2 µM
- IC50 (trypsin): > 40 µM
- solubility [2, 12]: 46 µg/mL (≈ 84.4 µM)
- solubility [2, 13]: 46 µg/mL (≈ 84.4 µM)
- Papp at 1 h, 50 μM [3]: 6 ×10⁻⁶ cm/s
- microsomal CLint at 5 μM [4]: 32 µL/min/mg
- microsomal CLint at 5 μM [5]: 72 µL/min/mg
- fraction unbound at 5 h, 5 μM [6]: 0.1
- fraction unbound at 5 h, 5 μM [7]: 0.06
- Predicted in vivo human Clp (% LBF) [8]: 14 % LBF
- Predicted in vivo rat Clp (% LBF) [9]: 12 % LBF

Structure (SMILES): COCc1nn(Cc2ccc(Cn3ccccc3=O)cc2)cc1C(=O)NCc1cc(OC)ccc1-n1cnnn1 [Example 40, N-{[5-methoxy-2-(1,2,3,4-tetrazol-1-yl)phenyl]methyl}-3-(methoxymethyl)-1-({4-[(2-oxopyridin-1-yl)methyl]phenyl}methyl)pyrazole-4-carboxamide]
- IC50 (Human plasma kallikrein [1]): 0.0004 µM
- Ki (Human plasma kallikrein [11]): 0.0001 µM
- Alpha (Human plasma kallikrein [11]): 2.2
- IC50 (Human KLK1): > 40 µM
- inhibition at 40 µM (Human FXIa): 20%
- IC50 (Human FXIa): > 40 µM
- IC50 (Human Factor XIIa): > 40 µM
- IC50 (plasmin): > 40 µM
- IC50 (thrombin): > 40 µM
- IC50 (trypsin): > 40 µM
- Papp at 1 h, 50 μM [3]: 5 ×10⁻⁶ cm/s
- microsomal CLint at 5 μM [4]: 22 µL/min/mg
- microsomal CLint at 5 μM [5]: 47 µL/min/mg
- fraction unbound at 5 h, 5 μM [6]: 0.24
- fraction unbound at 5 h, 5 μM [7]: 0.13
- Predicted in vivo human Clp (% LBF) [8]: 17 % LBF
- Predicted in vivo rat Clp (% LBF) [9]: 14 % LBF

Structure (SMILES): COc1ccnc(CNC(=O)c2cn(Cc3ccc(Cn4ccccc4=O)cc3)nc2C(F)(F)F)c1F [Example 6, N-[(3-fluoro-4-methoxypyridin-2-yl)methyl]-1-({4-[(2-oxopyridin-1-yl)methyl]phenyl}methyl)-3-(trifluoromethyl)pyrazole-4-carboxamide]
- IC50 (Human plasma kallikrein [1]): 0.0032 µM
- IC50 (Human KLK1): > 4 µM
- inhibition at 40 µM (Human FXIa): 2%
- IC50 (Human FXIa): > 40 µM
- IC50 (Human Factor XIIa): > 4 µM
- IC50 (plasmin): > 40 µM
- IC50 (thrombin): > 40 µM
- IC50 (trypsin): > 40 µM
- Papp at 1 h, 50 μM [3]: 17 ×10⁻⁶ cm/s
- microsomal CLint at 5 μM [4]: 42 µL/min/mg
- microsomal CLint at 5 μM [5]: 30 µL/min/mg
- fraction unbound at 5 h, 5 μM [6]: 0.13
- fraction unbound at 5 h, 5 μM [7]: 0.05
- Predicted in vivo human Clp (% LBF) [8]: 24 % LBF
- Predicted in vivo rat Clp (% LBF) [9]: 6 % LBF
- Cmax [10]: 1800 ng/mL
- Tmax [10]: 30 min
